Experimental data from patent US9492433B2, “Pharmaceutical composition for the treatment of Duchenne muscular dystrophy” (Summit Corporation Plc, priority 2012, dated 2016).
In brackets after ≈: the same amount, converted by molar mass. Like-named read-outs stand apart in the source and are kept apart here.

Assays:
Format in all cases: physicochemical
[1] = Solubility of C1100 Form I in pharmaceutically-acceptable solvents at 20° C. (HPLC of saturated solutions); details: organic solvent or mixture, thermodynamic from solid, Form I polymorph, 4 hours equilibration
Description: In each case, about 25 mg of drug substance was allowed to equilibrate with 250 μL of solvent over 4 hours. The resulting saturated solutions were filtered and analysed by HPLC.

[2] = Gravimetric vapour sorption analysis; details: Form I
Description: Form I was subjected to gravimetric vapour sorption analysis, ramping profile from 0 to 90% RH at 10% RH increments.

[3] = Water/octanol partition coefficient (ProfilerLDA isocratic chromatography); details: octanol/water (octanol-coated column), pH 7.4; read-out: log D (water/octanol partition coefficient)
Description: The water/octanol partition coefficient was determined with a ProfilerLDA isocratic chromatography system, using an octanol-coated column with octanol-saturated mobile phases.

[4] = Solubility in water and corn oil

solubility at 4 h ([1]; solvent 1,4-dioxane): 28400 µg/mL (≈ 84.2 mM)
solubility at 4 h ([1]; solvent 1-butanol): 350 µg/mL (≈ 1.04 mM)
solubility at 4 h ([1]; solvent 1-propanol): 790 µg/mL (≈ 2.34 mM)
solubility at 4 h ([1]; solvent 2-butanol): 850 µg/mL (≈ 2.52 mM)
solubility at 4 h ([1]; solvent 2-propanol): 470 µg/mL (≈ 1.39 mM)
solubility at 4 h ([1]; solvent Acetone): 27500 µg/mL (≈ 81.6 mM)
solubility at 4 h ([1]; solvent Acetonitrile): 5440 µg/mL (≈ 16.1 mM)
solubility at 4 h ([1]; solvent Butan-2-one): 3120 µg/mL (≈ 9.25 mM)
solubility at 4 h ([1]; solvent Chloroform): > 50000 µg/mL
solubility at 4 h ([1]; solvent Dimethylformamide): > 33800 µg/mL
solubility at 4 h ([1]; solvent Dimethylsulfoxide): 13200 µg/mL (≈ 39.1 mM)
solubility at 4 h ([1]; solvent Ethanol): 1140 µg/mL (≈ 3.38 mM)
solubility at 4 h ([1]; solvent Ethyl acetate): 8360 µg/mL (≈ 24.8 mM)
solubility at 4 h ([1]; solvent Heptane): 10900 µg/mL (≈ 32.4 mM)
solubility at 4 h ([1]; solvent Methanol): 1060 µg/mL (≈ 3.14 mM)
solubility at 4 h ([1]; solvent Tetrahydrofuran): 25900 µg/mL (≈ 76.8 mM)
solubility at 4 h ([1]; solvent Toluene): 8500 µg/mL (≈ 25.2 mM)
solubility at 4 h ([1]; solvent tert-butyl methyl ether (TBME)): 11700 µg/mL (≈ 34.6 mM)
Moisture absorbed ([2]; 0 to 90% RH at 10% RH increments, up to 90% RH, reversed under dry-air conditions): no more than 0.25 % by weight
Hygroscopicity ([2]; based on vapour sorption results): not hygroscopic
chromatographic logD [3]: 3.99 ± 0.01
solubility ([4]; oil or lipid, corn oil, very slightly soluble, read-out: Solubility in corn oil): 600 µg/mL (≈ 1.78 mM)
solubility ([4]; water, practically insoluble, read-out: Solubility in water): < 1 µg/mL
Compound: CCS(=O)(=O)c1ccc2oc(-c3ccc4ccccc4c3)nc2c1 [C1100, 5-(ethylsulfonyl)-2-(naphthalen-2-yl)benzo[d]oxazole]
